Source: patent publication US7985837B2, “Two component Bacillus lantibiotic and methods for producing and using the same” (The Board of Trustees of the University of Illinois, priority 2006, dated 2011)

Key:
[1] = test system: Lactococcus lactis CNRZ 117; assay: Bioactivity assay, solid agar medium test (zones of inhibition); format: cell-based; conditions: for zone of inhibition, both modified peptides together: prepared in vitro: HalA1-Xa/HalA2-Xa modified by HalM1/HalM2, leader removed by Factor Xa, both peptides applied
Description: Bioactivity Assay. The inhibitory activity of haloduracin isolated from the producing strain and prepared in vitro was assayed using the solid agar medium test. Liquid molten GM17 agar (4% M17, 0.5% glucose, 1.5% agar) was cooled to 50° C. and seeded with an overnight culture of the indicator strain Lactococcus lactis CNRZ 117. After agar solidification in a Petri dish, samples were applied to a small well created in the medium. Assay samples were typically concentrated to dryness using a speed vac and rehydrated in a small volume (5-15 μL) of sterile water for application purposes. The cell-free solution isolated from B. halodurans C-125 was applied directly to the plate without further concentration. Plates were incubated overnight at room temperature and zones of inhibition were observed the next day.

[2] = Ltn1 and Ltn2 acting in synergy in a 1:1 ratio; cited from earlier work

haloduracin: two-component lantibiotic of Bacillus halodurans C-125 composed of the modified peptides Hal1 (SEQ ID NO:5) and Hal2 (SEQ ID NO:6)
zone of growth inhibition ([1]; cell-free supernatant isolated from producer strain B. halodurans C-125, applied to indicator strain): a zone of growth inhibition was produced
zone of inhibition, both modified peptides together [1]: comparable to the bactericidal effects exhibited by the peptides isolated from the producer strain
zone of inhibition, both modified peptides together ([1]; listed as haloduracin peptides prepared in vitro): zone of inhibition comparable to that produced by Hal1 and Hal2 isolated from B. halodurans

lacticin 3147
antibacterial activity [2]: nanomolar antibacterial activity

Hal1: mature haloduracin alpha peptide from HalA1, SEQ ID NO:5; three dehydrations and one disulfide
zones of growth inhibition / antimicrobial activity after iodoacetamide modification ([1]; peptides isolated from B. halodurans, reduced and alkylated with iodoacetamide (Hal1 two adducts, Hal2 zero adducts), excess IAA removed): did not abolish antimicrobial activity
